Where two headings read alike, the source gives them in different places.
Key:
[1] = Transwell air-liquid interface exposure to NO or ENO gas, intracellular NO signal (DAF-FM); format: cell-based; conditions: NO or ENO gas 10 ppm for 4 hours; for NO signal produced by ENO or NO gas: buffer with 0.2 mM glutathione
Method: Cells were plated onto rat-tail collagen coated plastic inserts in a transwell system. When cells were firmly adherent and intact in appearance by microscopy, usually 24 h after plating, cell inserts were incubated in DAF-FM diacetate for one hour, then rinsed in Hepes-buffered Hank's balanced salt solution without amino acids. Buffer was removed from the upper chamber of the transwell and replaced with phosphate-buffered saline containing 0.2 mM glutathione in order to mimic the glutathione levels found in human alveolar lining fluid. […] The volume added was a few microliters sufficient to produce a layer of buffer ˜2 micron in thickness, in an effort to model the alveolar lining fluid thickness in the mammalian lung. Cell inserts were incubated at air liquid interface for 30 minutes, then exposed to NO or ENO gas 10 ppm for 4 hours. Inserts were then placed into a fluorescent microplate reader to detect the intracellular NO signal.

[2] = test system: Rat L2 (alveolar) cells, alveolar T1/T2 cells, alveolar macrophages; test: NO gas at air-liquid interface, DAF-FM NO signal in L2, alveolar T1/T2 cells and alveolar macrophages; format: cell-based; conditions: NO gas 10 ppm x 4 h; for L-Cys increase of NO signal (effect of competitors): competitors 10 mM x 1 h; for NO signal in all cell types: D- or L-Cys 50 μM, 4-8 wells/group
Method: Rat L2 (alveolar) cells were used at passage 30. 1° alveolar T1/T2 cells were isolated from adult rat lungs with antibody-coated magnetic beads, and identified by immunocytochemistry (T1: T1^α, aquaporin-5; T2: pro-SP-C). Alveolar macrophages were obtained by lavage. Cells were plated onto collagen-coated transwells, grown submerged×2d, then incubated with DAF-FM to detect NO. Apical medium was replaced by buffer+glutathione 0.2 mM,±D-or L-Cys 50 μM±LAT competitors L-Leu or BCH, 10 mM×1 h then exposed to air or NO gas 10 ppm×4 h. Fluorescence was read in 4-8 wells/condition. LAT-1 expression was measured/RT-PCR in air or 95% O2-exposed newborn rat lung (day 2, 3, 4, 8).

Rat alveolar (L2) cells [3] = test: Intracellular NO signal (DAF-FM fluorescence) in L2 cells incubated with ENO; format: cell-based; conditions: ENO 10 mM, L-Leu 10 mM; for ENO induced intracellular NO signal (DAF): L-Cys 0.5 mM, by 24 minutes, N=5/group, p<0.05
Method: (§1) Rat alveolar (L2) cells were located with DAF-FM (converted intracellularly to DAF; NO^++DAF→fluorescense), then incubated with ENO 10 mM+L-Cys 0.5 mM, L-Leu 10 mM (competitor for L-Cys entry via LAT1), or both L-Cys+L-Leu. DAF signal was measured at 5, 10, and 24 min. In parallel studies, S—NO was measured in L2 cell lysates after co-incubation with ENO 0.2 mM±L-Cys 0.5 mM±L-Leu 10 mM by ozone chemiluminescense (normalized to protein). LAT1 protein was detected by western and immunocytochemistry in 8d air or 95% O2—exposed rat lung.

Rat alveolar (L2) cells [4] = test: S-NO in L2 cell lysates by ozone chemiluminescence; format: cell-based; conditions: for ENO induced SNO accumulation: ENO 0.2 mM ± L-Cys 0.5 mM ± L-Leu 10 mM, N=2/group
Method: as §1

[5] = Newborn piglet saline-lavage lung injury with pulmonary hypertension, pulmonary artery pressure; format: in vivo; conditions: lungs lavaged with saline, inhaled NO 10 ppm, 56 Torr before treatment
Method: Newborn piglet was anesthetized and a thoracotomy was performed after placing arterial and venous monitoring catheters. A catheter was placed in the pulmonary artery and flow sensors around the pulmonary artery were placed.

lung cells = test: S-nitrosothiol uptake in lung cells (LAT / PEPT2 transport); format: cell-based, rat
Text: It was shown in a kidney cell line that transportation of extracellular S-nitrosothiols in the form of S-nitroso-L-cysteine through the L-type amnio acid transporter (LAT1) is necessary to achieve maximum intracellular S-nitrosothiol accumulation. It was also shown that eliminating the L-type amino acid transporter or blockade of the transporter severely limited the ability of extracellular S-nitroso-L-cysteine to gain entry into the kidney cell line. […] The results for kidney cell line were then obtained for umbilical endothelial cells. This reinforced our conception. We then performed exposures of rat pulmonary alveolar epithelial cells to a variety of S-nitrosothiol and nitric oxide donors and tested whether or not S-nitrosothiol and nitric oxide uptake required transnitrosylation of L-cysteine and uptake through L-type amino acid transport. In particular we conducted experiments using rat alveolar epithelial cells. […] We also tested the dipeptide transporter, PEPT2. […] When we added L-cysteine to the mixture, the high levels of S-nitrosothiol uptake in lung cells were restored, and this restoration was blocked when we blocked function of L-type amino acid transporter by competition or inhibition.
We conducted additional studies to determine if an alternate transporter, namely PEPT2, could account for some of the S-nitrosothiol uptake in lung cells. […] This confirmed the importance of L-cysteine as the carrier which is necessary to achieve high levels of S-nitrosothiols in lung cells. We confirmed these finding in freshly isolated lung cells as well.

[6] = test system: rat alveolar pulmonary epithelial cells (L2 and Type II); test: SNO/NO accumulation with NO donors in alveolar epithelial cells; format: cell-based; conditions: L-Cys added to NO donors; inhibited by co-incubation with LAT competitors
Method: We carried out experiments showing that addition of L-Cys to NO donors increased SNO/NO accumulation that was inhibited by co-incubation with LAT competitors in rat alveolar pulmonary epithelial cells (L2 and Type II). These are described in Granilla, O. M., AM. J. Physiol Lung Cell Mol. Physiol 295: L38-L43 (first published Apr. 25, 2008).

[7] = Working Example I: persistent pulmonary hypertension of the newborn; format: in vivo, human; conditions: L-cysteine 36 micrograms/kg by nebulizer, then inhaled ethyl nitrite or nitric oxide 1-50 ppm; from 88%
Method: A newborn is delivered at 41 weeks gestational age through thick meconium following a labor requiring augmentation with oxytocin. They are immediately noted at birth to experience respiratory distress and cyanosis. […] Their respiratory distress worsens requiring mechanical ventilation. […] The patient is treated with 36 micrograms/kg of L-cysteine by nebulizer attached to the inspiratory limb of the ventilator circuit, followed by initiation of inhaled ethyl nitrite or inhaled nitric oxide at 1-50 ppm. The patient SpO2 rises immediately from 88% to 100%, and systolic blood pressure improves. This example represents treatment of persistent pulmonary hypertension of the newborn.

[8] = Working Example II: prevention of bronchopulmonary dysplasia in a premature newborn; format: in vivo, human; conditions: L-cysteine 36 micrograms/kg daily with continuous ethyl nitrite 1-10 ppm for 14 days
Text: The patient is born at 25 weeks estimated gestational age following preterm prolonged spontaneous rupture of amniotic membranes. The patient requires immediate endotracheal intubation at birth as well as mechanical ventilation. The patient receives the usual neonatal intensive care including exogenous surfactant administration, indomethacin prophylaxis for prevention of intraventricular hemorrhage, and intravenous antibiotics. Because the patient is at high risk to develop bronchopulmonary dysplasia, the patient is treated each day with a single dose of 36 micrograms/kg of L-cysteine and continuous ethyl nitrite at 1-10 ppm for a total of 14 days. (This is done via […] unless the patient should be extubated, in which case the inhaled ethyl nitrite is delivered via nasal cannula and the L-cysteine is administered once a day via nebulizer) Within five days, the patient is weaned from mechanical ventilation and extubated to nasal continuous positive airway pressure, continuing to receive inhaled […] 1-10 ppm, and daily L-cysteine at 36 micrograms/kg. […], the continuous positive airway pressure is discontinued. […] the patient is discharged home, without any diagnosed complications of extreme prematurity. This example represents prevention of development of bronchopulmonary dysphasia in a premature newborn infant.

Q: With `NC1(C(=O)O)CC2CCC1C2` (stereo not drawn) [BCH, 2-aminobicyclo-(2,2,1)-heptane-2-carboxylic acid] as the molecule, how does the “L-cysteine augmentation of NO signal (effect of LAT competitors)” value ([1]; with L-cysteine) read?
A: completely abolished

Q: And the “L-Cys increase of NO signal (effect of competitors)” value [2]?
A: blocked

Q: What does the source list for `N[C@H](CS)C(=O)O` [D-cysteine]?
A: NO signal produced by ENO or NO gas [1]: no effect; NO signal in all cell types [2]: not

Q: With `CCON=O` [ENO, ethyl nitrite] as the molecule, how does the “intracellular NO^+ (DAF)” value (Rat alveolar (L2) cells [3]; 5, 10 and 24 min) read?
A: increased

Q: What about the “intracellular SNO” value (Rat alveolar (L2) cells [4]; ENO 0.2 mM) of the same molecule?
A: increased

Q: With `[N]=O` [Inhaled nitric oxide, nitric oxide] as the molecule, how does the “peak pulmonary pressure / pulmonary artery pressure” value [5] read?
A: 45 Torr

Q: For `N[C@@H](CS)C(=O)O` [L-cysteine], which “ENO induced intracellular NO signal (DAF)” value (Rat alveolar (L2) cells [3]) is on record?
A: augmented

Q: And the “ENO induced SNO accumulation” value (Rat alveolar (L2) cells [4])?
A: augmented

Q: What about the “NO signal produced by ENO or NO gas” value [1] of the same molecule?
A: augmentation

Q: And the “NO signal in all cell types” value [2]?
A: increased

Q: And the “S-nitrosothiol signal / accumulation in lung cells” value (lung cells)?
A: restored

Q: What about the SNO/NO accumulation [6] of the same molecule?
A: increased

Q: What about the SpO2 [7] of the same molecule?
A: 100%

Q: And the “bronchopulmonary dysplasia at 36 weeks post conceptual age” value [8]?
A: no evidence of bronchopulmonary dysplasia

Q: Which “uptake in lung cells via dipeptide transporter PEPT2” value (lung cells) does the source give for `N[C@@H](CS)C(=O)NCC(=O)O` [L-cysteinyl-glycine] here?
A: taken up

Q: Which results are given for `CC(C)C[C@H](N)C(=O)O` [L-leucine]?
A: ENO induced intracellular NO signal (DAF) (Rat alveolar (L2) cells [3]): significantly less; ENO induced SNO accumulation (Rat alveolar (L2) cells [4]): did not augment; L-Cys increase of NO signal (effect of competitors) [2]: blocked

Q: For `N[C@@H](CSN=O)C(=O)NCC(=O)O` [S-nitroso-L-cysteinyl-glycine], which “S-nitrosothiol signal / accumulation in lung cells” value (lung cells) is on record?
A: could not achieve high levels

Q: And the “S-nitrosothiol signal / accumulation in lung cells” value (lung cells; listed as S—NO-Cys-Gly)?
A: did not significantly increase
